Experimental data published in patent US11904052B2, “Methods for ameliorating infusion reactions” (ARBUTUS BIOPHARMA CORPORATION, priority 2016, dated 2024).
Entries after “also recorded” stand apart in the source; their conditions may differ.

Assays:
conscious minipig = experiment: Mean arterial blood pressure by radiotelemetry after LNP2 infusion in the conscious minipig; type: in vivo, Gottingen minipigs; conditions: iv bolus 10 minutes prior to LNP2 infusion; ketorolac 1 mg/kg, dexamethasone 0.3 mg/kg
From the text: (§1) Four (4) treatment naïve female Gottingen minipigs (Marshall Farms, N.Y.) were surgically implanted with a D70-PCT PhysioTel implantable radiotelemetry transmitter (Data Sciences International, St. Paul, Minn.) to allow for the measurement of physical activity, body temperature, ECG, heart rate, and arterial blood pressure. The pigs were allowed to recover from surgery for at least 7 days prior to use in the study.
(§2) Following surgical recovery, the same four pigs (15-20 kg) received a 60-minute intravenous infusion of vehicle (0.9% saline), LNP2, LNP2+ketorolac, or LNP2+dexamethasone as outlined in the Table 1. Each treatment cohort was separated by a 7-day washout period.
(§3) Just prior to each infusion and at approximately 1, 3, 6 and 24 hours after the start of each infusion, a mixed venous blood sample was taken, processed to plasma, stored frozen, and used for subsequent analysis of thromboxane B2 (11-dehydrothromboxane B2). Heart rate and arterial blood pressure was continuously recorded from 30 minutes prior to each infusion to 24 hours after the start of each infusion.

thromboxane B2 = experiment: Plasma thromboxane B2 after LNP2 infusion in the conscious minipig; type: in vivo, Gottingen minipigs; conditions: iv bolus 10 minutes prior to LNP2 infusion; ketorolac 1 mg/kg, dexamethasone 0.3 mg/kg
From the text: as §1, §2, §3

**Q.** Which “effect on the acute infusion reaction to LNP2 (increase in blood pressure)” value (conscious minipig) does the source give for `O=C(c1ccccc1)c1ccc2n1CCC2C(=O)O` (stereo not drawn) [ketorolac] here?
**A.** completely prevented

**Q.** And the “effect on the delayed hypotension after LNP2 infusion” value (conscious minipig)?
**A.** prevented; also recorded: effectively mitigated

**Q.** What about the “effect on the LNP2-induced increase in thromboxane B2” value (thromboxane B2) of the same compound?
**A.** mitigated completely
